Tested on: hair cells of hCLRN1^N48K-YFP; clrn1^KO/KO larvae
Assay: Extracellular microphonic potentials of lateral line neuromast hair cells
Format: in vivo, zebrafish
Conditions: 0.4 uM ART 4 hours/day from 3 dpf to 6 dpf; recorded at 6 dpf; untreated 7.286
Protocol: Zebrafish larvae at 6 dpf were anesthetized using MS-222 (Sigma-Aldrich) dissolved in a standard bath solution containing 120 mM NaCl, 2 mM KCl, 10 mM HEPES, 2 mM CaCl2, and 0.7 mM NaH2PO4 adjusted to pH 7.2. The larvae were then secured in a recording chamber using dental floss tie downs (Ricci and Fettiplace, 1997). Their blood flow and heart rate were visually observed to assess viability using an upright Olympus BX51WI microscope. Recordings were made with a PC-505B amplifier (Warner Instruments) and a PCI-6221 digitizer (National Instruments). Images were taken with a Grasshopper3 CMOS camera (Point Grey) and processed with software provided by the manufacturer. To record the activity of hair cells from the lateral line neuromasts, the cupula of neuromasts were deflected with a fluid jet placed ˜50 μm from the neuromast (Trapani and Nicolson, 2010) and controlled by an HSPC-1 (ALA Scientific Instruments) that delivered sinusoidal stimuli of 50 Hz. Microphonic potentials were recorded at room temperature (22° C.). […] Microphonic potentials were recorded using a jClamp for Windows (SciSoft, license: Joseph Santos-Sacchi, Yale University, New Haven, CT) in current-clamp mode, amplified by 20 (SIM983; Stanford 37 Research), and low-pass filtered at 200 Hz. […]

## C[C@@H]1CC[C@H]2[C@@H](C)C(=O)O[C@@H]3O[C@@]4(C)CC[C@@H]1[C@]32OO4 [ART, Artemisinin]
  Extracellular microphonic potentials (Mean±SEM): 9.529 μV

From patent US11865103B2, “Methods of treating disorders associated with glycosylation defective proteins” (CASE WESTERN RESERVE UNIVERSITY, priority 2016, dated 2024)
